Assay results: PubChem BioAssay (NCI)
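1) Cells in 96-well plates. 2) Compound, 48 h, 5 concentrations. 3) Linear interpolation between surrounding doses. 4) Unreached endpoint = highest concentration. GI50: concentration for 50% inhibition of growth. TGI is the concentration that stops growth completely.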

Experiments:
Assay in all cases: NCI tumour cell line growth inhibition, 48 h
[1] = tested on: 786-0 renal
[2] = tested on: A498 renal
[3] = tested on: A549 NSCLC
[4] = tested on: ACHN renal
[5] = tested on: BT-549 breast
[6] = tested on: CAKI-1 renal
[7] = tested on: CCRF-CEM leukemia
[8] = tested on: COLO 205 colon
[9] = tested on: DU-145 prostate
[10] = tested on: EKVX NSCLC
[11] = tested on: HCC-2998 colon
[12] = tested on: HCT-116 colon
[13] = tested on: HCT-15 colon
[14] = tested on: HL-60(TB) leukemia
[15] = tested on: HOP-62 NSCLC
[16] = tested on: HOP-92 NSCLC
[17] = tested on: HS 578T breast
[18] = tested on: HT29 colon
[19] = tested on: IGROV1 ovarian
[20] = tested on: K-562 leukemia
[21] = tested on: KM12 colon
[22] = tested on: LOX IMVI melanoma
[23] = tested on: M14 melanoma
[24] = tested on: MALME-3M melanoma
[25] = tested on: MCF7 breast
[26] = tested on: MDA-MB-231 breast
[27] = tested on: MDA-MB-435
[28] = tested on: MOLT-4 leukemia
[29] = tested on: NCI-H226 lung
[30] = tested on: NCI-H23 lung
[31] = tested on: NCI-H460 lung
[32] = tested on: NCI-H522 lung
[33] = tested on: NCI/ADR-RES ovarian
[34] = tested on: OVCAR-3 ovarian
[35] = tested on: OVCAR-4 ovarian
[36] = tested on: OVCAR-5 ovarian
[37] = tested on: OVCAR-8 ovarian
[38] = tested on: PC-3 prostate
[39] = tested on: RPMI-8226 leukemia
[40] = tested on: RXF 393 renal
[41] = tested on: SF-268 CNS
[42] = tested on: SF-295 CNS
[43] = tested on: SF-539 CNS
[44] = tested on: SK-MEL-2 melanoma
[45] = tested on: SK-MEL-28 melanoma
[46] = tested on: SK-MEL-5 melanoma
[47] = tested on: SK-OV-3 ovarian
[48] = tested on: SN12C renal
[49] = tested on: SNB-19 CNS
[50] = tested on: SNB-75 CNS
[51] = tested on: SR leukemia
[52] = tested on: SW-620 colon
[53] = tested on: T-47D breast
[54] = tested on: TK-10 renal
[55] = tested on: U251 CNS
[56] = tested on: UACC-257 melanoma
[57] = tested on: UACC-62 melanoma
[58] = tested on: UO-31 renal

## O=C(/C=C/c1cccs1)Nc1ncc(Cc2ccccc2F)s1
[1]
  GI50: 590 nM
  TGI: > 100000 nM
[2]
  GI50: 175 nM
  TGI: 899 nM
[3]
  GI50: 480 nM
  TGI: > 100000 nM
[4]
  GI50: 462 nM
  TGI: > 100000 nM
[5]
  TGI: > 100000 nM
[6]
  GI50: 75.3 nM
  TGI: > 100000 nM
[7]
  GI50: 254 nM
  TGI: > 100000 nM
[8]
  GI50: 325 nM
  TGI: 26900 nM
[9]
  GI50: 300 nM
  TGI: > 100000 nM
[10]
  GI50: 412 nM
  TGI: > 100000 nM
[11]
  GI50: 463 nM
  TGI: > 100000 nM
[12]
  GI50: 273 nM
  TGI: > 100000 nM
[13]
  GI50: 123 nM
  TGI: > 100000 nM
[14]
  GI50: 213 nM
  TGI: 589 nM
[15]
  GI50: 407 nM
  TGI: > 100000 nM
[16]
  GI50: 1390 nM
  TGI: > 100000 nM
[17]
  GI50: 270 nM
  TGI: > 100000 nM
[18]
  GI50: 210 nM
  TGI: > 100000 nM
[19]
  GI50: 541 nM
  TGI: > 100000 nM
[20]
  GI50: 74.9 nM
  TGI: > 100000 nM
[21]
  GI50: 205 nM
  TGI: > 100000 nM
[22]
  GI50: 180 nM
  TGI: > 100000 nM
[23]
  GI50: 120 nM
[24]
  GI50: 359 nM
  TGI: > 100000 nM
[25]
  GI50: 318 nM
  TGI: > 100000 nM
[26]
  GI50: 611 nM
  TGI: > 100000 nM
[27]
  GI50: 31.2 nM
  TGI: 113 nM
[28]
  GI50: 378 nM
  TGI: > 100000 nM
[29]
  TGI: > 100000 nM
[30]
  GI50: 2780 nM
  TGI: > 100000 nM
[31]
  GI50: 335 nM
  TGI: > 100000 nM
[32]
  GI50: 194 nM
[33]
  GI50: 246 nM
  TGI: > 100000 nM
[34]
  GI50: 216 nM
  TGI: 671 nM
[35]
  GI50: 791 nM
  TGI: > 100000 nM
[36]
  GI50: 506 nM
  TGI: > 100000 nM
[37]
  GI50: 508 nM
  TGI: > 100000 nM
[38]
  GI50: 261 nM
  TGI: > 100000 nM
[39]
  GI50: 330 nM
  TGI: > 100000 nM
[40]
  GI50: 192 nM
  TGI: 508 nM
[41]
  GI50: 757 nM
  TGI: > 100000 nM
[42]
  GI50: 244 nM
  TGI: > 100000 nM
[43]
  GI50: 219 nM
  TGI: 649 nM
[44]
  GI50: 518 nM
  TGI: > 100000 nM
[45]
  GI50: 886 nM
  TGI: > 100000 nM
[46]
  GI50: 242 nM
  TGI: > 100000 nM
[47]
  GI50: 477 nM
  TGI: > 100000 nM
[48]
  GI50: 633 nM
  TGI: > 100000 nM
[49]
  GI50: 361 nM
  TGI: > 100000 nM
[50]
  GI50: 154 nM
  TGI: 651 nM
[51]
  GI50: 52.2 nM
  TGI: > 100000 nM
[52]
  GI50: 159 nM
  TGI: > 100000 nM
[53]
  GI50: 404 nM
  TGI: > 100000 nM
[54]
  TGI: > 100000 nM
[55]
  GI50: 350 nM
  TGI: > 100000 nM
[56]
  GI50: > 100000 nM
  TGI: > 100000 nM
[57]
  GI50: 207 nM
  TGI: > 100000 nM
[58]
  GI50: 437 nM
  TGI: > 100000 nM
